Patent US20240180872A1, “METHODS AND COMPOUNDS OF CANNABIDIOL, MELATONIN AND AKBA FOR TREATING PANCREATIC CANCER” (priority 2021, published 2024)

Test system: PANC-1 cells
Assay: Nude mice orthotopic pancreatic tumor model
Assay type: in vivo, Athymic Nude-Foxn1nu mice
Conditions: after 30 days of treatment, GEM 50 mg/kg, MLT 400 mg/kg, CBD 10 mg/kg
From the text: Species and strain: Athymic Nude-Foxn1nu mice.
PANC-1 cells were thawed and cultured in DMEM (Dulbecco's Modified Eagle Medium) +2% L-glutamine +10% FBS (Fetal Bovine Serum), Penicillin/Streptomycin and maintain the cell culture in 100 mm Petri dish (Sarstedt, Germany).
A period of acclimation (at least 5 days) was allowed to mice before tumor inoculation. Before the inoculum, PANC-1 cells were detached with trypsin, counted with trypan blue and for each inoculum, 1×10^6 cells were suspended in 20 ul of PBS. Mice (n=20) were anesthetized with isoflurane (induction at 4% and maintenance at 2%) and cell solutions (20 μL, 1×10^6 cells) were orthotopically injected into the tail of the pancreas exploiting the echo-guided procedure. The 20 animals inoculated with tumor cells were divided in 4 groups (Table 6) when tumor size reaches a volume of approximately 20-30 mm^3 (tumor size was determined by ultrasound imaging analysis).
The animals were inoculated with 1×10^6 PANC-1 cells with VevoLAZR-X system by using echo-guided injection method. All animals were treated every three days for 30 days starting when tumor reached the volume of approximately 30 mm^3 (around 10-15 days from the inoculum). […]
Tumor volume was analyzed by using Vevo Lab software (Fujifilm Visualsonics).

In the case of `Nc1ccn([C@@H]2O[C@H](CO)[C@@H](O)C2(F)F)c(=O)n1` [GEM, Gemcitabine], the tumor volumes (IP every three days, Vehicle 630,8) is reported as 111,1 and the “effect on tumor volume” value (IP) is reported as “high effect”.
